pIC50: −log10 of the molar value.
System: PC3 cells
Assay: NAMPT Cell Proliferation Assay
Format: cell-based
Details: Homo sapiens, PC-3, 120 h, 5 days incubation, cell viability by Cell Titer Glo
In short: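 Five-day CellTiter-Glo viability readout in PC3 cells grown in RPMI/10% heat-inactivated FBS. Compounds added after overnight attachment as a 10-fold dilution series, […]. Percent inhibition fitted to sigmoidal dose-response to derive IC50.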

**Q.** `CC(C)CCC(=O)N1CC(Oc2ccc(NC(=O)C3CN(c4ccnnc4)C3)cc2)C1` [Example 263, N-(4-{[1-(4-methylpentanoyl)azetidin-3-yl]oxy}phenyl)-1-(pyridazin-4-yl)azetidine-3-carboxamide] was tested. Which pIC50 did it give?
**A.** Its pIC50 is 7.23.

**Q.** With `Cc1ncccc1N1CC(C(=O)Nc2ccc(C3CCN(C(=O)c4ccsc4)CC3)cc2)C1` [Example 169, 1-(2-methylpyridin-3-yl)-N-{4-[1-(thiophen-3-ylcarbonyl)piperidin-4-yl]phenyl}azetidine-3-carboxamide] as the molecule, how does the pIC50 read?
**A.** The pIC50 was 7.18.

**Q.** How did the pIC50 turn out when `CCCC(C)CN1CCC(c2ccc(NC(=O)C3CN(c4cccnc4)C3)cc2)CC1` (stereo not shown) [Example 90, N-{4-[1-(2-methylpentyl)piperidin-4-yl]phenyl}-1-(pyridin-3-yl)azetidine-3-carboxamide] was run?
**A.** The pIC50 was 7.22.

**Q.** `O=C(Nc1ccc(OC2CCN(C(=O)c3nccs3)CC2)cc1)C1CN(c2cccnn2)C1` [Example 213, 1-(pyridazin-3-yl)-N-(4-{[1-(1,3-thiazol-2-ylcarbonyl)piperidin-4-yl]oxy}phenyl)azetidine-3-carboxamide] was tested. Which pIC50 did it give?
**A.** The pIC50 was 8.16.

**Q.** With `CCOCC(=O)N1CCC(c2ccc(NC(=O)C3CN(c4cccnc4)C3)cc2)CC1` [Example 131, N-{4-[1-(ethoxyacetyl)piperidin-4-yl]phenyl}-1-(pyridin-3-yl)azetidine-3-carboxamide] as the molecule, how does the pIC50 read?
**A.** The pIC50 was 9.52.

**Q.** `Cc1ccc(C(=O)N2CCC(c3ccc(NC(=O)C4CN(c5ccnnc5)C4)cc3)CC2)s1` [Example 539, N-(4-{1-[(5-methylthiophen-2-yl)carbonyl]piperidin-4-yl}phenyl)-1-(pyridazin-4-yl)azetidine-3-carboxamide] was tested. Which pIC50 did it give?
**A.** The pIC50 was 8.59.

**Q.** `COCC(=O)N1CCC(Oc2ccc(NC(=O)C3CN(c4cccnc4)C3)cc2)CC1` [Example 57, N-(4-{[1-(methoxyacetyl)piperidin-4-yl]oxy}phenyl)-1-(pyridin-3-yl)azetidine-3-carboxamide] was tested. Which pIC50 did it give?
**A.** The pIC50 was 8.06.

**Q.** How did the pIC50 turn out when `O=C(Nc1ccc(OC2CCN(C(=O)c3ccccc3)CC2)cc1)[C@H]1CCN(c2cccnn2)C1` [Example 799, (3S)-N-{4-[(1-benzoylpiperidin-4-yl)oxy]phenyl}-1-(pyridazin-3-yl)pyrrolidine-3-carboxamide] was run?
**A.** Its pIC50 is 7.59.

**Q.** With `O=C(Nc1ccc(S(=O)(=O)C2CCN(C(=O)c3ccc(C(F)(F)F)cc3)CC2)cc1)C1CN(c2cccnn2)C1` [Example 587, 1-(pyridazin-3-yl)-N-[4-({1-[4-(trifluoromethyl)benzoyl]piperidin-4-yl}sulfonyl)phenyl]azetidine-3-carboxamide] as the molecule, how does the pIC50 read?
**A.** The pIC50 was 7.09.

**Q.** `O=C(Nc1ccc(S(=O)(=O)C2CCN(C(=O)C3(c4ccccc4)CC3)CC2)cc1)C1CN(c2cccnn2)C1` [Example 601, N-[4-({1-[(1-phenylcyclopropyl)carbonyl]piperidin-4-yl}sulfonyl)phenyl]-1-(pyridazin-3-yl)azetidine-3-carboxamide] was tested. Which pIC50 did it give?
**A.** Its pIC50 is 7.01.

**Q.** How did the pIC50 turn out when `CC(C)(C)C(=O)N1CCC(c2ccc(NC(=O)[C@H]3CCN(c4cccnn4)C3)cc2)CC1` [Example 313, (3S)—N-{4-[1-(2,2-dimethylpropanoyl)piperidin-4-yl]phenyl}-1-(pyridazin-3-yl)pyrrolidine-3-carboxamide] was run?
**A.** Its pIC50 is 8.22.

**Q.** With `CCC(CC)C(=O)N1CCC(c2ccc(NC(=O)[C@H]3CCN(c4cccnn4)C3)cc2)CC1` [Example 707, (3S)-N-{4-[1-(2-ethylbutanoyl)piperidin-4-yl]phenyl}-1-(pyridazin-3-yl)pyrrolidine-3-carboxamide] as the molecule, how does the pIC50 read?
**A.** Its pIC50 is 8.16.

**Q.** `Cc1ccc(C(=O)N2CCC(Oc3ccc(NC(=O)C4CN(c5ccnnc5)C4)cc3)CC2)s1` [Example 304, N-[4-({1-[(5-methylthiophen-2-yl)carbonyl]piperidin-4-yl}oxy)phenyl]-1-(pyridazin-4-yl)azetidine-3-carboxamide] was tested. Which pIC50 did it give?
**A.** The pIC50 was 7.48.

**Q.** `O=C(Nc1ccc(C2CCN(C(=O)CSc3ncccn3)CC2)cc1)C1CN(c2cccnn2)C1` [Example 382, 1-(pyridazin-3-yl)-N-(4-{1-[(pyrimidin-2-ylsulfanyl)acetyl]piperidin-4-yl}phenyl)azetidine-3-carboxamide] was tested. Which pIC50 did it give?
**A.** The pIC50 was 8.05.

**Q.** `O=C(Nc1ccc(OC2CCN(C(=O)c3ccc(F)cc3)CC2)cc1)[C@H]1CCN(c2cccnn2)C1` [Example 800, (3S)-N-(4-{[1-(4-fluorobenzoyl)piperidin-4-yl]oxy}phenyl)-1-(pyridazin-3-yl)pyrrolidine-3-carboxamide] was tested. Which pIC50 did it give?
**A.** Its pIC50 is 7.22.

**Q.** `O=C(Nc1ccc(OC2CCN(C(=O)Cc3cccc(F)c3)CC2)cc1)C1CN(c2cccnn2)C1` [Example 227, N-[4-({1-[(3-fluorophenyl)acetyl]piperidin-4-yl}oxy)phenyl]-1-(pyridazin-3-yl)azetidine-3-carboxamide] was tested. Which pIC50 did it give?
**A.** Its pIC50 is 8.34.

**Q.** How did the pIC50 turn out when `O=C(Nc1ccc(O[C@@H]2CCN(C(=O)Cc3ccc(C(F)(F)F)cc3)C2)cc1)C1CN(c2cccnn2)C1` [Example 497, 1-(pyridazin-3-yl)-N-(4-{[(3R)-1-{[4-(trifluoromethyl)phenyl]acetyl}pyrrolidin-3-yl]oxy}phenyl)azetidine-3-carboxamide] was run?
**A.** The pIC50 was 7.63.

**Q.** `O=C(Nc1ccc(S(=O)(=O)C2CCN(C(=O)c3ccc(F)cc3F)CC2)cc1)C1CN(c2cccnn2)C1` [Example 586, N-(4-{[1-(2,4-difluorobenzoyl)piperidin-4-yl]sulfonyl}phenyl)-1-(pyridazin-3-yl)azetidine-3-carboxamide] was tested. Which pIC50 did it give?
**A.** The pIC50 was 6.97.

**Q.** `O=C(Nc1ccc(C2CCN(C(=O)c3cc(Cl)ccc3Cl)CC2)cc1)C1CN(c2cccnn2)C1` [Example 363, N-{4-[1-(2,5-dichlorobenzoyl)piperidin-4-yl]phenyl}-1-(pyridazin-3-yl)azetidine-3-carboxamide] was tested. Which pIC50 did it give?
**A.** Its pIC50 is 8.25.

**Q.** `O=C(Nc1ccc(C2CCN(C(=O)c3ccc(C(F)(F)F)cc3)CC2)cc1)C1CN(c2ccnnc2)C1` [Example 553, 1-(pyridazin-4-yl)-N-(4-{1-[4-(trifluoromethyl)benzoyl]piperidin-4-yl}phenyl)azetidine-3-carboxamide] was tested. Which pIC50 did it give?
**A.** The pIC50 was 7.36.

**Q.** With `Cc1ccsc1C(=O)N1CCC(c2ccc(NC(=O)[C@H]3CCN(c4cccnn4)C3)cc2)CC1` [Example 679, (3S)-N-(4-{1-[(3-methylthiophen-2-yl)carbonyl]piperidin-4-yl}phenyl)-1-(pyridazin-3-yl)pyrrolidine-3-carboxamide] as the molecule, how does the pIC50 read?
**A.** The pIC50 was 9.22.

**Q.** `O=C(Nc1ccc(C2CCN(C(=O)CC3CCCC3)CC2)cc1)[C@H]1CCN(c2cccnc2)C1` [Example 204, (3S)—N-{4-[1-(cyclopentylacetyl)piperidin-4-yl]phenyl}-1-(pyridin-3-yl)pyrrolidine-3-carboxamide] was tested. Which pIC50 did it give?
**A.** The pIC50 was 7.61.

**Q.** With `Cc1ncccc1N1CC[C@H](C(=O)Nc2ccc(C3CCN(C(=O)CCC(F)(F)F)CC3)cc2)C1` [Example 745, (3S)-1-(2-methylpyridin-3-yl)-N-{4-[1-(4,4,4-trifluorobutanoyl)piperidin-4-yl]phenyl}pyrrolidine-3-carboxamide] as the molecule, how does the pIC50 read?
**A.** The pIC50 was < 5.00.

**Q.** `O=C(N[C@H]1CCN(c2cccnn2)C1)c1ccc(C2CCN(C(=O)c3ccccc3F)CC2)s1` [Example 763, 5-[1-(2-fluorobenzoyl)piperidin-4-yl]-N-[(3S)-1-(pyridazin-3-yl)pyrrolidin-3-yl]thiophene-2-carboxamide] was tested. Which pIC50 did it give?
**A.** The pIC50 was 8.08.

**Q.** How did the pIC50 turn out when `O=C(Nc1ccc(C2CCN(C(=O)C3CC3)CC2)cc1)C1CN(c2ccnnc2)C1` [Example 541, N-{4-[1-(cyclopropylcarbonyl)piperidin-4-yl]phenyl}-1-(pyridazin-4-yl)azetidine-3-carboxamide] was run?
**A.** Its pIC50 is 8.38.

**Q.** `O=C(Nc1ccc(C2CCN(C(=O)c3cccc(Cl)c3)CC2)cc1)[C@H]1CCN(c2cccnn2)C1` [Example 709, (3S)-N-{4-[1-(3-chlorobenzoyl)piperidin-4-yl]phenyl}-1-(pyridazin-3-yl)pyrrolidine-3-carboxamide] was tested. Which pIC50 did it give?
**A.** Its pIC50 is 7.84.

**Q.** `Cc1ncccc1N1CC(C(=O)Nc2ccc(C3CCN(C(=O)c4ccco4)CC3)cc2)C1` [Example 189, N-{4-[1-(furan-2-ylcarbonyl)piperidin-4-yl]phenyl}-1-(2-methylpyridin-3-yl)azetidine-3-carboxamide] was tested. Which pIC50 did it give?
**A.** Its pIC50 is 7.84.

**Q.** With `O=C(Nc1ccc(C2CCN(C(=O)C3CCOC3)CC2)cc1)[C@H]1CCN(c2cccnn2)C1` (stereo partly drawn) [Example 638, (3S)-1-(pyridazin-3-yl)-N-{4-[1-(tetrahydrofuran-3-ylcarbonyl)piperidin-4-yl]phenyl}pyrrolidine-3-carboxamide] as the molecule, how does the pIC50 read?
**A.** The pIC50 was 7.52.

**Q.** `CC(C)(C)C(=O)N1C2CCC1CC(c1ccc(NC(=O)C3CN(c4cccnn4)C3)cc1)C2` (stereo not shown) [Example 844, N-{4-[8-(2,2-dimethylpropanoyl)-8-azabicyclo[3.2.1]oct-3-yl]phenyl}-1-(pyridazin-3-yl)azetidine-3-carboxamide] was tested. Which pIC50 did it give?
**A.** Its pIC50 is 8.60.

**Q.** `O=C(Nc1ccc(O[C@@H]2CCN(C(=O)c3ccc(OC(F)(F)F)cc3)C2)cc1)C1CN(c2cccnn2)C1` [Example 519, 1-(pyridazin-3-yl)-N-[4-({(3R)-1-[4-(trifluoromethoxy)benzoyl]pyrrolidin-3-yl}oxy)phenyl]azetidine-3-carboxamide] was tested. Which pIC50 did it give?
**A.** The pIC50 was 8.49.

**Q.** With `O=C(Nc1ccc(C2CCN(C(=O)C(c3ccccc3)c3ccccc3)CC2)cc1)[C@H]1CCN(c2cccnn2)C1` [Example 698, (3S)-N-{4-[1-(diphenylacetyl)piperidin-4-yl]phenyl}-1-(pyridazin-3-yl)pyrrolidine-3-carboxamide] as the molecule, how does the pIC50 read?
**A.** Its pIC50 is 7.17.

**Q.** `CCC(=O)N1CCC(Oc2ccc(NC(=O)C3CN(c4cccnc4)C3)cc2)CC1` [Example 65, N-{4-[(1-propanoylpiperidin-4-yl)oxy]phenyl}-1-(pyridin-3-yl)azetidine-3-carboxamide] was tested. Which pIC50 did it give?
**A.** The pIC50 was 8.20.

**Q.** With `CC1(Cn2cc(-c3ccc(NC(=O)[C@H]4CCN(c5cccnn5)C4)cc3)cn2)CCOCC1` [Example 756, (3S)—N-(4-{1-[(4-methyltetrahydro-2H-pyran-4-yl)methyl]-1H-pyrazol-4-yl}phenyl)-1-(pyridazin-3-yl)pyrrolidine-3-carboxamide] as the molecule, how does the pIC50 read?
**A.** The pIC50 was 8.04.

**Q.** With `CC(C)(C)c1ccc(C(=O)N2CCC(c3ccc(NC(=O)[C@H]4CCN(c5cccnn5)C4)cc3)CC2)cc1` [Example 708, (3S)-N-{4-[1-(4-tert-butylbenzoyl)piperidin-4-yl]phenyl}-1-(pyridazin-3-yl)pyrrolidine-3-carboxamide] as the molecule, how does the pIC50 read?
**A.** Its pIC50 is 7.85.
